The text below walks through data of patent US9121067B2, “Predictive marker for EGFR inhibitor treatment” (Hoffmann-La Roche Inc., priority 2007, dated 2015).

For series [1] the following is noted: patients with cancer receiving 150 mg/day; 500 ng/ml is the average plasma concentration targeted for clinical efficacy; cited from earlier work.
Series [2] concerns patients with advanced NSCLC following failure of at least one prior chemotherapy regimen. The experiment in a line: open-label Phase II predictive marker study, response assessment by RECIST. The series is classed as in vivo, human. On the procedure:
Based on the experience from the BR.21 study, benefiting population was defined as either having objective response, or disease stabilization for 12 weeks. Clinical and microarray datasets were analyzed according to a pre-defined statistical plan.
This was an open-label, predictive marker identification Phase II study. The study was conducted in approximately 26 sites in about 12 countries. 264 patients with advanced NSCLC following failure of at least one prior chemotherapy regimen were enrolled over a 12 month period. […] Dose reductions were permitted based on tolerability to drug therapy. Clinical and laboratory parameters were assessed to evaluate disease control and toxicity. Treatment continued until disease progression, unacceptable toxicity or death. The study design is depicted in FIG. 1.
The RECIST (Uni-dimensional Tumour Measurement) criteria were used to evaluate response.
To be assigned a status of CR or PR, changes in tumour measurements must be confirmed by repeated assessments at least 4 weeks apart at any time during the treatment period.
In the case of SD, follow-up measurements must have met the SD criteria at least once after study entry at a minimum interval of 6 weeks.
In the case of maintained SD, follow-up measurements must have met the SD criteria at least once after study entry with maintenance duration of at least 12 weeks.

Series [3] concerns NSCLC patients for whom standard therapy for advanced disease has failed. The conditions noted are these: single agent versus placebo; cited from earlier work.
Setting [4] is: 75 patients with qRT-PCR results.
Setting [5] is: n = 102, benefit = objective response or disease stabilization for >=12 weeks.
The mark [6] stands for this setting: patients included in microarray analysis n = 102, oral 150 mg/day.

In the case of `C#Cc1cccc(Nc2ncnc3cc(OCCOC)c(OCCOC)cc23)c1` [Tarceva, erlotinib], in series [1], the “drug levels in plasma” value was over 500 ng/mL. Further, in series [2] (setting [4]), the “patients with PD” value is on record as 52%, the “patients with SD” value is 31% and the “patients with partial response (PR)” value was 5%. Further, in series [2] (setting [5]), the “Clinical Benefit NO, n (%)” value is given as 81 (79.4%) and the “Clinical Benefit YES, n (%)” value is 21 (20.6%). Also, in series [2] (setting [6]), the “Best Response PD, n (%)” value is 49 (48.0%); the “Best Response PR, n (%)” value was 6 (5.9%); the “Best Response SD, n (%)” value is given as 31 (30.4%). In series [3], the survival result was “significantly prolongs and improves the survival”.
